Like-named read-outs stand apart in the source and are kept apart here.
Experiments:
[1] = target: T1, HIV-1 RT-associated RNase H (Human immunodeficiency virus type 1 group M subtype B, UniProt P04585); test: HIV-1 DNA polymerase-independent RNase H activity determination; type: biochemical
T1 construct: The 1:1 ratio between the p66/p51 subunits was also verified; His tag (implied only by Ni-NTA IMAC purification); made in house; host or cells: Escherichia coli M15
Description: (§1) Escherichia coli strain M15 containing the p6HRT-prot vector (provided by Stuart Le Grice laboratory (NCI Frederick)) was grown to an optical density at 600 nm of 0.7 and induced with 1.7 mM of isopropyl β-D-1-thiogalactopyranoside (IPTG) for 4 h. Protein purification was carried out with a BioLogic LP system (Bio-Rad, Hercules, CA, USA) using a combination of immobilized metal affinity chromatography (IMAC) and ion exchange chromatography. Cell pellets were resuspended in lysis buffer (50 mM of sodium phosphate buffer, pH 7.8, containing 0.5 mg/mL of lysozyme), incubated on ice for 20 min, and, after the addition of NaCl to a final concentration of 0.3 M, were sonicated and centrifuged at 30,000 ×g for 1 h. The supernatant was loaded onto a Ni^2+-NTA-Sepharose column pre-equilibrated with loading buffer (50 mM of sodium phosphate buffer, pH 7.8, containing 0.3 M of NaCl, 10% glycerol, and 10 mM of imidazole) and washed thoroughly with wash buffer (50 mM of sodium phosphate buffer, pH 6.0, containing 0.3 M of NaCl, 10% glycerol, and 80 mM of imidazole). RT was eluted with an imidazole gradient in the wash buffer (0–0.5 M). Fractions were collected, and protein purity was checked by sodium dodecyl sulfate–polyacrylamide gel electrophoresis (SDS-PAGE) and found to be higher than 90%. The 1:1 ratio between the p66/p51 subunits was also verified. Enzyme-containing fractions were pooled and diluted 1:1 with 50 mM of sodium phosphate buffer, pH 7.0, containing 10% glycerol, and then loaded into a Hi-trap heparin HP GE (Healthcare LifeScience) pre-equilibrated with 10 column volumes of loading buffer (50 mM of sodium phosphate buffer, pH 7.0, containing 10% glycerol, and 150 mM of NaCl). The column was then washed with loading buffer, and the RT was eluted with Elute Buffer 2 (50 mM of sodium phosphate, pH 7.0, 10% glycerol, 1 M of NaCl). Fractions were collected, and the protein was dialyzed and stored in a buffer containing 50 mM of Tris-HCl, pH 7.0, 25 mM of NaCl, 1 mM of EDTA, and 50% glycerol. Catalytic activities and protein concentrations were determined. Enzyme-containing fractions were pooled, and aliquots were stored at −80°C.
HIV RT-associated RNase H activity was measured as described ([Corona et al., 2016b]) in a 100-µl reaction volume containing 50 mM of Tris-HCl buffer, pH 7.8, 6 mM of MgCl2, 1 mM of dithiothreitol (DTT), 80 mM of KCl, 0.25 µM of hybrid RNA/DNA 5′-[…]-Fluorescin-3′ (high-performance liquid chromatography (HPLC), dry, QC: Mass Check) (available from Metabion) 5′-Dabcyl-[…]-3′ (HPLC, dry, QC: Mass Check), increasing concentrations of inhibitors, whose dilution were made in water, and different amounts of enzymes according to a linear range of the dose–response curve. The reaction mixture was incubated for 1 h at 37°C and stopped by the addition of EDTA, and products were measured with a multilabel counter plate reader Victor 3 equipped with filters for 490/528 nm.

[2] = target: T2, HIV-1 RT-associated RDDP (Human immunodeficiency virus type 1 group M subtype B, UniProt P04585); test: HIV-1 RNA-dependent DNA polymerase activity determination; type: biochemical
T2 construct: The 1:1 ratio between the p66/p51 subunits was also verified; His tag (implied only by Ni-NTA IMAC purification); made in house; host or cells: Escherichia coli M15
Description: as §1
RDDP activity was measured as previously reported in 25-µl volume containing 60 mM of Tris‐HCl buffer, pH 8.1, 8 mM of MgCl2, 60 mM of KCl, 13 mM of DTT, 2.5 µM of poly(A)-oligo(dT), 100 µM of dTTP, increasing concentrations of inhibitors, whose dilution were made in water, and different amounts of enzymes according to a linear range of the dose–response curve. The reaction mixture was incubated for 30 min at 37°C and then stopped by the addition of EDTA. Reaction products were detected by pico green addition and measured with a multilabel counter plate reader Victor 3, equipped with filters for 502/523 nm.

[3] = system: HIV-1; test: HIV-1 replication inhibition in MT4 cells; type: cell-based
Description: (§2) HIV-1 replication was carried out in MT4 cells as previously reported ([Corona et al., 2016a]) using a molecular clone derived from the pNL4-3 ([Thierry et al., 2015]). A total of 120 ng of p24^gag antigen per 10^6 cells, corresponding to a multiplicity of infection (m.o.i.) of 0.3, was used for infection. […] Flow cytometry analysis was performed on a FACSCalibur flow cytometer (BD Biosciences, San Jose, CA, USA), and the results were analyzed using the […] software.

[4] = Viability of infected MT4 cells (cytotoxicity); type: cell-based; conditions: human, infected MT4 cells viability, three independent experiments, average ± standard deviation
Description: as §2

[5] = wt HIV-1 RT, three independent experiments, average ± standard deviation, read-out: RNase H IC50
[6] = wt HIV-1 RT, three independent experiments, average ± standard deviation, read-out: RDDP IC50
[7] = Human immunodeficiency virus 1, MT4, viral replication in MT4 cells, three independent experiments, average ± standard deviation, read-out: HIV-1 EC50
[8] = Human immunodeficiency virus 1, MT4, read-out: HIV-1 EC50
[9] = wt HIV-1 RT, three independent experiments, average ± standard deviation

| Compound | IC50 [1, 5] | IC50 [2, 6] | EC50 [3, 7] | CC50 ([4]; MT4 cells infected with HIV-1) | IC50 [1] | IC50 [2] | EC50 [3, 8] | CC50 [4] | RNase H IC50 [1, 9] |
| --- | --- | --- | --- | --- | --- | --- | --- | --- | --- |
| O=C1Nc2ccc(Cl)cc2C1=NNc1nc(-c2ccc(Cl)cc2)cs1 [1b] | 12 ± 2.3 µM | 30 ± 7.5 µM | > 100 µM | > 100 µM |  |  |  |  |  |
| Cn1c(-c2ccc(Cl)cc2)cs/c1=N\N=C1/C(=O)Nc2ccc([N+](=O)[O-])cc21 [1c] | 8.2 ± 1 µM | 24 ± 3 µM | > 42 µM | 42 ± 8 µM |  |  |  |  |  |
| O=C1Nc2ccc([N+](=O)[O-])cc2/C1=N/Nc1nc(-c2ccc(F)cc2)cs1 [2a] | 5.1 ± 2 µM | 9.5 ± 0.5 µM | > 100 µM | > 100 µM |  |  |  |  |  |
| O=C1Nc2ccc(Cl)cc2/C1=N/Nc1nc(-c2ccc(F)cc2)cs1 [2b] | 4.5 ± 0.2 µM | 7.5 ± 1.5 µM | > 56 µM | 56 ± 6 µM |  |  |  |  |  |
| Cn1c(-c2ccc(F)cc2)cs/c1=N\N=C1/C(=O)Nc2ccc([N+](=O)[O-])cc21 [2c] | 5.6 ± 0.6 µM | 21 ± 1 µM | > 7 µM | 7 ± 1.6 µM |  |  |  |  |  |
| O=C1Nc2ccc(Cl)cc2/C1=N/Nc1nc(-c2ccc(Br)cc2)cs1 [3b] | 4.4 ± 0.1 µM | 8.3 ± 0.6 µM | > 95 µM | 95 ± 14 µM |  |  |  |  |  |
| Cn1c(-c2ccc(Br)cc2)cs/c1=N\N=C1/C(=O)Nc2ccc([N+](=O)[O-])cc21 [3c] | 7.7 ± 1.2 µM | 19.5 ± 3.3 µM | > 25 µM | 25 ± 3.1 µM |  |  |  |  |  |
| O=C1Nc2ccc([N+](=O)[O-])cc2/C1=N/Nc1nc(-c2ccc([N+](=O)[O-])cc2)cs1 [4a] |  |  |  |  | 7.6 ± 1.4 µM | 21 ± 3 µM | > 100 µM | > 100 µM |  |
| O=C1Nc2ccc(Cl)cc2/C1=N/Nc1nc(-c2ccc([N+](=O)[O-])cc2)cs1 [4b] | 15.3 ± 1.5 µM | 14.9 ± 2.7 µM | > 50 µM | 50 ± 12 µM |  |  |  |  |  |
| Cn1c(-c2ccc([N+](=O)[O-])cc2)cs/c1=N\N=C1/C(=O)Nc2ccc([N+](=O)[O-])cc21 [4c] |  |  |  |  | 1.9 ± 0.2 µM | 6 ± 0.5 µM | > 5.5 µM | 5.5 ± 0.9 µM |  |
| O=C1Nc2ccc([N+](=O)[O-])cc2/C1=N/Nc1nc(-c2ccc(-c3ccccc3)cc2)cs1 [5a] | 7.1 ± 0.1 µM | 12 ± 3 µM | > 100 µM | > 100 µM |  |  |  |  |  |
| O=C1Nc2ccc(Cl)cc2/C1=N/Nc1nc(-c2ccc(-c3ccccc3)cc2)cs1 [5b] | 13.2 ± 1.6 µM | 38 ± 5 µM |  |  |  |  |  |  |  |
| Cn1c(-c2ccc(-c3ccccc3)cc2)cs/c1=N\N=C1/C(=O)Nc2ccc([N+](=O)[O-])cc21 [5c] | 6.1 ± 1.1 µM | 11.4 ± 2.2 µM | > 7 µM | 7 ± 1.4 µM |  |  |  |  |  |
| N#Cc1ccc(-c2csc(N/N=C3\C(=O)Nc4ccc([N+](=O)[O-])cc43)n2)cc1 [6a] | 6 ± 0.1 µM | 9.3 ± 0.3 µM | > 100 µM | > 100 µM |  |  |  |  |  |
| N#Cc1ccc(-c2csc(N/N=C3\C(=O)Nc4ccc(Cl)cc43)n2)cc1 [6b] | 7.8 ± 0.1 µM | 34 ± 6 µM | > 95 µM | 95 ± 5 µM |  |  |  |  |  |
| Cn1c(-c2ccc(C#N)cc2)cs/c1=N\N=C1/C(=O)Nc2ccc([N+](=O)[O-])cc21 [6c] | 100 ± 5 µM | 12.1 ± 1.6 µM |  |  |  |  |  |  | active only toward the RDDP function |
| O=C1Nc2ccc([N+](=O)[O-])cc2/C1=N/Nc1nc(-c2ccc(F)cc2F)cs1 [7a] | 6 ± 0.1 µM | 11.5 ± 0.5 µM |  |  |  |  |  |  |  |
| O=C1Nc2ccc(Cl)cc2/C1=N/Nc1nc(-c2ccc(F)cc2F)cs1 [7b] | 6 ± 1.5 µM | 10 ± 1 µM |  |  |  |  |  |  |  |
| O=C1Nc2ccc([N+](=O)[O-])cc2/C1=N/Nc1nc(-c2cccc([N+](=O)[O-])c2)cs1 [8a] | 6.5 ± 0.5 µM | 18.5 ± 0.5 µM |  |  |  |  |  |  |  |
| O=C1Nc2ccc(Cl)cc2/C1=N/Nc1nc(-c2cccc([N+](=O)[O-])c2)cs1 [8b] | 22 ± 1 µM | 72 ± 13 µM |  |  |  |  |  |  |  |
| Cn1c(-c2cccc([N+](=O)[O-])c2)cs/c1=N\N=C1/C(=O)Nc2ccc([N+](=O)[O-])cc21 [8c] | 100 ± 20 µM | 8.7 ± 1.5 µM |  |  |  |  |  |  | active only toward the RDDP function |
| O=C1Nc2ccc([N+](=O)[O-])cc2/C1=N/Nc1nc(-c2ccc(Cl)c(Cl)c2)cs1 [9a] | 6.5 ± 0.5 µM | 11.5 ± 0.5 µM | > 100 µM | > 100 µM |  |  |  |  |  |
